According to US9233964B2, “Sulfamide piperazine derivatives as protein tyrosine kinase inhibitors and pharmaceutical use therof” (LEO PHARMA A/S, priority 2011, dated 2016):

Experiments:
Format in all cases: biochemical
[1] = molecular target: T1, JAK2 (Homo sapiens, UniProt O60674); assay: JAK kinase assay (HTRF, phosphorylation of synthetic peptide), JAK2; conditions: catalytic domain, ATP at Km (4 μM); read-out: JAK2 kinase inhibitory activity (EC50)
T1 construct: All four purified enzymes contain only the catalytic domain; His (N); purchased Carna Biosciences, Inc; host or cells: baculovirus expression system
Summary of the method: (§1)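 Catalytic-domain human JAK1 (GST-tagged, aa 850-1154) or His-tagged JAK2, baculovirus-expressed, phosphorylated 1 µM biotinylated TK peptide at Km ATP (JAK1 7 µM, 10 mM MgCl2, 50 nM SEB; JAK2 4 µM, 5 mM MgCl2) in pH 7.0 Hepes, 20-30 min RT. EDTA stop; overnight streptavidin-XL665/cryptate HTRF read.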

[2] = molecular target: T2, TYK2 (Homo sapiens, UniProt P29597); assay: JAK kinase assay (HTRF, phosphorylation of synthetic peptide), TYK2; conditions: catalytic domain, ATP at Km (13 μM); read-out: TYK2 kinase inhibitory activity (EC50)
T2 construct: JAK1 (aa 850-1154) and TYK2 (aa 871-1187) are expressed with an N-terminally fused GST-tag; GST (N); purchased Carna Biosciences, Inc; host or cells: baculovirus expression system
T2 sequence (P29597 871-1187): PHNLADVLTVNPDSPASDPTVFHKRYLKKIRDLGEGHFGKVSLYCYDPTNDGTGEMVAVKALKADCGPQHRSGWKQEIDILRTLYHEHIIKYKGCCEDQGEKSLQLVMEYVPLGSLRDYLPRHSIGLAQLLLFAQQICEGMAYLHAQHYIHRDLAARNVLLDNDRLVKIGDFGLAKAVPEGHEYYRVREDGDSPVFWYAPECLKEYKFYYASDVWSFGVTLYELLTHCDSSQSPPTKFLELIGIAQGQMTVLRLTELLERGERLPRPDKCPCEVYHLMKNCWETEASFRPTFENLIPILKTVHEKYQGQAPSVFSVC
Summary of the method: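 1 µM biotinylated TK peptide at Km ATP in pH 7.0 Hepes, 20-30 min RT. EDTA stop; overnight streptavidin-XL665/cryptate HTRF read.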

[3] = molecular target: T3, JAK3 (Homo sapiens, UniProt P52333); assay: JAK kinase assay (HTRF, phosphorylation of synthetic peptide), JAK3; conditions: catalytic domain, ATP at Km (2 μM); read-out: JAK3 kinase inhibitory activity (EC50)
T3 construct: All four purified enzymes contain only the catalytic domain; His (N); purchased Carna Biosciences, Inc; host or cells: baculovirus expression system

[4] = molecular target: T4, JAK1 (Homo sapiens, UniProt P23458); assay: JAK kinase assay (HTRF, phosphorylation of synthetic peptide), JAK1; conditions: catalytic domain, ATP at Km (7 μM); read-out: JAK1 kinase inhibitory activity (EC50)
T4 construct: JAK1 (aa 850-1154) and TYK2 (aa 871-1187) are expressed with an N-terminally fused GST-tag; GST (N); purchased Carna Biosciences, Inc; host or cells: baculovirus expression system
Summary of the method: as §1

T3 sequence (P52333 822-1111 limits assumed): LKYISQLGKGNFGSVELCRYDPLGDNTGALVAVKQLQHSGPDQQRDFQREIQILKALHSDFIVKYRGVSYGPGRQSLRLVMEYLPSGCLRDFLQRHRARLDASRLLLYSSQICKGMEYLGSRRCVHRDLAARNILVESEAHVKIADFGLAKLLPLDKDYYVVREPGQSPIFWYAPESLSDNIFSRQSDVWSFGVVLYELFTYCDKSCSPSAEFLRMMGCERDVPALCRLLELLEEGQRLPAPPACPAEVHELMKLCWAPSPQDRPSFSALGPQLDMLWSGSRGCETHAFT
T1 sequence (O60674 849-1124 limits assumed): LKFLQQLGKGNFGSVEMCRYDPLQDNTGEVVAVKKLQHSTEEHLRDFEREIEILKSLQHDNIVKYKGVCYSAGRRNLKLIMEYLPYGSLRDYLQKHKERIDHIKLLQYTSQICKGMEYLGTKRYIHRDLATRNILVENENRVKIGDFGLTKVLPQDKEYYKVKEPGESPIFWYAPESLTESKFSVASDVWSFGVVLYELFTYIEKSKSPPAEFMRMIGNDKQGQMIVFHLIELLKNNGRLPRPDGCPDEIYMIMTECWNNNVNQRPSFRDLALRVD
T4 sequence (P23458 850-1154): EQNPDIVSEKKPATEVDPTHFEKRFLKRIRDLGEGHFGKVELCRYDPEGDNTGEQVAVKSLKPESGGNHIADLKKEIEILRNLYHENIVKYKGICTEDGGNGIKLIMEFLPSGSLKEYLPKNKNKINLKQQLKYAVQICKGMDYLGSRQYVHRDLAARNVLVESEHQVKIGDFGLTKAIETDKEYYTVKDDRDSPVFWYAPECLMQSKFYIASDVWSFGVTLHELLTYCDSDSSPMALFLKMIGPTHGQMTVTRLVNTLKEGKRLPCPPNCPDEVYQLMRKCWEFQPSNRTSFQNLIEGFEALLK

Row | SMILES | EC50 [1] | EC50 [2] | EC50 [3] | EC50 [4]
1 | CN(C)C(=O)CN(C)S(=O)(=O)N1CCN(c2ncnc3[nH]ccc23)CC12CC2 [Example 36, N,N-Dimethyl-2-{methyl-[7-(7H-pyrrolo[2,3-d]pyrimidin-4-yl)-4,7-diaza-spiro[2.5]octane-4-sulfonyl]-amino}-acetamide] | < 100 nM | 100 to 500 nM | 100 to 500 nM | < 100 nM
2 | N#CC1CCCN(S(=O)(=O)N2CCN(c3ncnc4[nH]ccc34)CC23CC3)C1 (stereo not drawn) [Example 42, 1-[7-(7H-Pyrrolo[2,3-d]pyrimidin-4-yl)-4,7-diaza-spiro[2.5]octane-4-sulfonyl]-piperidine-3-carbonitrile] | < 100 nM | > 500 nM | 100 to 500 nM | < 100 nM
3 | N#CCCCN(CCO)S(=O)(=O)N1CCN(c2ncnc3[nH]ccc23)CC12CC2 [Example 110, N-(3-cyanopropyl)-N-(2-hydroxyethyl)-5-(7H-pyrrolo[2,3-d]pyrimidin-4-yl)-5,8-diazaspiro[2.5]octane-8-sulfonamide] | < 100 nM | 100 to 500 nM | < 100 nM | < 100 nM
4 | CN(CC1CCNCC1)S(=O)(=O)N1CCN(c2ncnc3[nH]ccc23)CC12CC2 [Int 26] | < 100 nM | > 500 nM | 100 to 500 nM | < 100 nM
5 | CN(Cc1ccno1)S(=O)(=O)N1CCN(c2ncnc3[nH]ccc23)CC12CC2 [Example 68, N-(isoxazol-5-ylmethyl)-N-methyl-5-(7H-pyrrolo[2,3-d]pyrimidin-4-yl)-5,8-diazaspiro[2.5]octane-8-sulfonamide] | < 100 nM | 100 to 500 nM | < 100 nM | < 100 nM
6 | O=S(=O)(NC1CCCC1)N1CCN(c2ncnc3[nH]ccc23)CC12CC2 [Example 144, N-cyclopentyl-5-(7H-pyrrolo[2,3-d]pyrimidin-4-yl)-5,8-diazaspiro[2.5]octane-8-sulfonamide] | < 100 nM | 100 to 500 nM | 100 to 500 nM | < 100 nM
7 | COc1ccc(/C=N\S(=O)(=O)N2CCN(c3ncnc4[nH]ccc34)CC23CC3)cc1 [Int 49] | < 100 nM | 100 to 500 nM | < 100 nM | < 100 nM
8 | CN(C[C@H]1CCCN1S(=O)(=O)CCCC#N)S(=O)(=O)N1CCN(c2ncnc3[nH]ccc23)CC12CC2 [Example 182, N-[[(2R)-1-(3-cyanopropylsulfonyl)pyrrolidin-2-yl]methyl]-N-methyl-5-(7H-pyrrolo[2,3-d]pyrimidin-4-yl)-5,8-diazaspiro[2.5]octane-8-sulfonamide] | < 100 nM | < 100 nM | < 100 nM | < 100 nM

More lines, now with the values ahead:

Row | EC50 [1] | EC50 [2] | EC50 [3] | EC50 [4] | SMILES
9 | < 100 nM | 100 to 500 nM | < 100 nM | < 100 nM | CN(CCc1ccc(F)cc1)S(=O)(=O)N1CCN(c2ncnc3[nH]ccc23)CC12CC2 [Example 16, 7-(7H-Pyrrolo[2,3-d]pyrimidin-4-yl)-4,7-diaza-spiro[2.5]octane-4-sulfonic acid [2-(4-fluoro-phenyl)-ethyl]-methyl-amide]
10 | < 100 nM | > 500 nM | 100 to 500 nM | < 100 nM | CN(CCOc1ccc(Cl)cc1)S(=O)(=O)N1CCN(c2ncnc3[nH]ccc23)CC12CC2 [Example 69, N-[2-(4-chlorophenoxy)ethyl]-N-methyl-5-(7H-pyrrolo[2,3-d]pyrimidin-4-yl)-5,8-diazaspiro[2.5]octane-8-sulfonamide]
11 | < 100 nM | > 500 nM | 100 to 500 nM | < 100 nM | CN(CCCc1ccccc1)S(=O)(=O)N1CCN(c2ncnc3[nH]ccc23)CC12CC2 [Example 10, 7-(7H-Pyrrolo[2,3-d]pyrimidin-4-yl)-4,7-diaza-spiro[2.5]octane-4-sulfonic acid methyl-(3-phenyl-propyl)-amide]
12 | < 100 nM | > 500 nM | 100 to 500 nM | 100 to 500 nM | O=S(=O)(N(CCO)CCOc1ccccc1)N1CCN(c2ncnc3[nH]ccc23)CC12CC2 [Example 111, N-(2-hydroxyethyl)-N-(2-phenoxyethyl)-5-(7H-pyrrolo[2,3-d]pyrimidin-4-yl)-5,8-diazaspiro[2.5]octane-8-sulfonamide]
